Data on eight compounds can be found in BindingDB's records for doi:10.1016/j.bmcl.2005.11.011 (University of Pennsylvania, 2006).

For this experiment, the target named is T1, Dimer of Gag-Pol polyprotein [489-587] (Human immunodeficiency virus 1, UniProt P12497).
T1 construct: 489-587
Briefly: Protease Inhibition Assay. The settings on record: pH 5.5; 30 °C.
For orientation: IC50 means the concentration at which inhibition is half-maximal. Read a high IC50 as weaker potency in that assay. As for `NC(=O)O[C@@H]1Cc2ccccc2C1C1C=N[C@@](Cc2ccccc2)(C[C@H](O)[C@H](Cc2ccccc2)NC(=O)O[C@H]2CCOC2)C1=O` (stereo partly drawn) [(3S)-oxolan-3-yl N-[(2S,3S)-4-[(2S)-2-benzyl-4-[(2R)-2-(carbamoyloxy)-2,3-dihydro-1H-inden-1-yl]-3-oxo-2,3-dihydro-1H-pyrrol-2-yl]-3-hydroxy-1-phenylbutan-2-yl]carbamate], the IC50 is 2 nM.

On to `CC(C)(C)OC(=O)N[C@@H](Cc1ccccc1)[C@@H](O)C[C@]1(Cc2ccccc2)N=CC(C2c3ccccc3[C@H]3NC(=O)O[C@@H]23)C1=O` (stereo partly drawn) [tert-butyl N-[(2S,3S)-4-[(2S)-4-[(3aR,8aS)-2-oxo-2H,3H,3aH,8H,8aH-indeno[1,2-d][1,3]oxazol-8-yl]-2-benzyl-3-oxo-2,3-dihydro-1H-pyrrol-2-yl]-3-hydroxy-1-phenylbutan-2-yl]carbamate], for which the IC50 turned out to be 2.5 nM.

The compound `O=C(N[C@@H](Cc1ccccc1)[C@@H](O)C[C@]1(Cc2ccccc2)N=CC(C2c3ccccc3[C@H]3NC(=O)O[C@@H]23)C1=O)O[C@H]1CCOC1` (stereo partly drawn) [(3S)-oxolan-3-yl N-[(2S,3S)-4-[(2S)-4-[(3aR,8aS)-2-oxo-2H,3H,3aH,8H,8aH-indeno[1,2-d][1,3]oxazol-8-yl]-2-benzyl-3-oxo-2,3-dihydro-1H-pyrrol-2-yl]-3-hydroxy-1-phenylbutan-2-yl]carbamate] came in with an IC50 of 0.44 nM.

On to `CC(C)(C)CC(=O)N[C@@H](Cc1ccccc1)[C@@H](O)C[C@]1(Cc2ccccc2)N=CC(C2C[C@H](CC(N)=O)c3ccccc32)C1=O` (stereo partly drawn) [N-[(2S,3S)-4-[(2S)-2-benzyl-4-[(3R)-3-(carbamoylmethyl)-2,3-dihydro-1H-inden-1-yl]-3-oxo-2,3-dihydro-1H-pyrrol-2-yl]-3-hydroxy-1-phenylbutan-2-yl]-3,3-dimethylbutanamide], for which the IC50 was > 250 nM.

In the case of `O=C(N[C@@H](Cc1ccccc1)[C@@H](O)C[C@]1(Cc2ccccc2)N=CC(C2c3ccccc3C[C@H]2O)C1=O)O[C@H]1CCOC1` (stereo partly drawn) [(3S)-oxolan-3-yl N-[(2S,3S)-4-[(2S)-2-benzyl-4-[(2R)-2-hydroxy-2,3-dihydro-1H-inden-1-yl]-3-oxo-2,3-dihydro-1H-pyrrol-2-yl]-3-hydroxy-1-phenylbutan-2-yl]carbamate], 2 nM corresponded to half-maximal inhibition (IC50).

Compound `O=C(N[C@@H](Cc1ccccc1)[C@@H](O)C[C@]1(Cc2ccccc2)N=CC(C2CNC(=O)c3ccccc32)C1=O)O[C@H]1CCOC1` (stereo partly drawn) [(3S)-oxolan-3-yl N-[(2S,3S)-4-[(2S)-2-benzyl-3-oxo-4-(1-oxo-1,2,3,4-tetrahydroisoquinolin-4-yl)-2,3-dihydro-1H-pyrrol-2-yl]-3-hydroxy-1-phenylbutan-2-yl]carbamate] came in with an IC50 of 5.7 nM.

`CC(C)(C)CC(=O)N[C@@H](Cc1ccccc1)[C@@H](O)C[C@]1(Cc2ccccc2)N=CC(C2c3ccccc3[C@H]3NC(=O)O[C@@H]23)C1=O` (stereo partly drawn) [N-[(2S,3S)-4-[(2S)-4-[(3aR,8aS)-2-oxo-2H,3H,3aH,8H,8aH-indeno[1,2-d][1,3]oxazol-8-yl]-2-benzyl-3-oxo-2,3-dihydro-1H-pyrrol-2-yl]-3-hydroxy-1-phenylbutan-2-yl]-3,3-dimethylbutanamide]: inhibition was half-maximal at 96 nM (IC50). Compared with the last compound, the IC50 is about 17-fold higher.

In the case of `CC(C)(C)OC(=O)N[C@@H](Cc1ccccc1)[C@@H](O)C[C@]1(Cc2ccccc2)N=CC(C2C[C@H](CC(N)=O)c3ccccc32)C1=O` (stereo partly drawn) [tert-butyl N-[(2S,3S)-4-[(2S)-2-benzyl-4-[(3R)-3-(carbamoylmethyl)-2,3-dihydro-1H-inden-1-yl]-3-oxo-2,3-dihydro-1H-pyrrol-2-yl]-3-hydroxy-1-phenylbutan-2-yl]carbamate], the IC50 came out at 20.5 nM.
